Measurements reported in article PMC6125190 (Cell metabolism, 2018).

Target: T1, CPT-1a (carnitine palmitoyltransferase-1) (Mus musculus, UniProt P97742)
T1 sequence (P97742 2-773): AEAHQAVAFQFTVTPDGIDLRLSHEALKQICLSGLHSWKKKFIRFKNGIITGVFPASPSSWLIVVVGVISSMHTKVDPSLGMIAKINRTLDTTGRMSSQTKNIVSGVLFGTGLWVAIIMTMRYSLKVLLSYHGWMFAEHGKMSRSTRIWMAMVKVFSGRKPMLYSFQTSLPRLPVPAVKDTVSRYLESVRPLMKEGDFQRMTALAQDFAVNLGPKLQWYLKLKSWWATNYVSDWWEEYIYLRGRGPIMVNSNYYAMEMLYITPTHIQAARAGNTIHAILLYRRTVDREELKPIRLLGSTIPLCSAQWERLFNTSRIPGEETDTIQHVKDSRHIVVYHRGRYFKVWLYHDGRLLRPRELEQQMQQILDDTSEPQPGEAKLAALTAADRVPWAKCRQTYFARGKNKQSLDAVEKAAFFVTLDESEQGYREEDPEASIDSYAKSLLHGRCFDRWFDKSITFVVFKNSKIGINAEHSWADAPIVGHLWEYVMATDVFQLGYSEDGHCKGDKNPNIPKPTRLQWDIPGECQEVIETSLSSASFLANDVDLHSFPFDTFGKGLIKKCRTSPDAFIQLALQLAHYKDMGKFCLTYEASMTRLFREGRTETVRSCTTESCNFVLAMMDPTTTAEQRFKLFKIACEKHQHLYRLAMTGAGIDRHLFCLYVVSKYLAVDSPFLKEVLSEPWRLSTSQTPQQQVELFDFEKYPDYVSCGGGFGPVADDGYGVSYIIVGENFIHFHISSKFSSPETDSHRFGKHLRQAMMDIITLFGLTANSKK
Format: biochemical

## CCOC(=O)[C@@]1(CCCCCCOc2ccc(Cl)cc2)CO1 [Eto, etomoxir]
  palmitoyl-CoA-driven respiration in permeabilized mouse BMDMs pretreated with et: < 3 µM
